From patent publication US6673769B2, “Lanthionine bridged peptides” (priority 1991, dated 2004)
Like-named read-outs stand apart in the source and are kept apart here.

How the values were obtained:
[1] = Enzymatic degradation of enkephalin analogs (half-life)
SSTR2 receptor = test: Inhibition of radioligand binding to cloned somatostatin receptor SSTR2; conditions: for IC50: cloned receptor, radioligand binding, read-out: SSTR2 receptor binding constant IC50
SSTR4 receptor = test: Inhibition of radioligand binding to cloned somatostatin receptor SSTR4; conditions: for IC50: cloned receptor, radioligand binding, read-out: SSTR4 receptor binding constant IC50
MVD (δ-receptor) = biological target: T1, MVD (δ-receptor) (Mus musculus, UniProt P32300); test: cell-based
T1 construct: The vas is then mounted under 0.5 g tension in a 5 ml organ bath; from tissue; host or cells: mouse vas deferens (Swiss Webster)

δ receptor = δ receptor (Homo sapiens, UniProt P41143); test: δ-Binding, replacement of 3H-naltrindole
[2] = inhibition of electrically evoked twitch of mouse vas deferens, read-out: MVD IC50

T1 sequence (P32300 whole entry): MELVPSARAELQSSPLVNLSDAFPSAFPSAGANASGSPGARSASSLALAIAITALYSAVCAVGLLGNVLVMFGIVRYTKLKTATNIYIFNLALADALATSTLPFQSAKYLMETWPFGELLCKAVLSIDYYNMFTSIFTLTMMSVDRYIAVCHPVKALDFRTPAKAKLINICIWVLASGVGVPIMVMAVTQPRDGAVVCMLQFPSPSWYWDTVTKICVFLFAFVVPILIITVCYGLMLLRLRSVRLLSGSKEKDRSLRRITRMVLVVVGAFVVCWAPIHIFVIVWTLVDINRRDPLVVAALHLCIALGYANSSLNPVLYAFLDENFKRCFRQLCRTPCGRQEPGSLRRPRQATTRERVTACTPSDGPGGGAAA
δ receptor, sequence (P41143 whole entry): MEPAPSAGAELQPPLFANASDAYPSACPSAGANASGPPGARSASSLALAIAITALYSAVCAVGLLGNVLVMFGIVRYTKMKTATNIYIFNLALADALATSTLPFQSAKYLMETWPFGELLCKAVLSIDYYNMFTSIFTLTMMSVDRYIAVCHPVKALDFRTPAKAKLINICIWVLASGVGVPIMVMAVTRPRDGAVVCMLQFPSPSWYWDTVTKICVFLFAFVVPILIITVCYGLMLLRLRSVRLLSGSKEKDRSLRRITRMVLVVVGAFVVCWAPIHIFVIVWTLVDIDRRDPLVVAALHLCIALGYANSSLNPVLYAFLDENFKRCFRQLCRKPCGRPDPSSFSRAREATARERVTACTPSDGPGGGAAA

Compound | IC50 (SSTR2 receptor) | IC50 (SSTR4 receptor) | other results
NC(=O)[C@@H]1CSSC[C@@H](NC(=O)[C@@H](N)Cc2ccc(O)cc2)C(=O)NCC(=O)N[C@@H](Cc2ccccc2)C(=O)N1 [Disulfide-enkephalin, reference compound] |  |  | half-life [1]: 5.53 h
NC(=O)[C@@H]1CSC[C@@H](NC(=O)[C@@H](N)Cc2ccc(O)cc2)C(=O)NCC(=O)N[C@@H](Cc2ccccc2)C(=O)N1 [Lanthionine-enkephalin] |  |  | half-life [1]: 20.4 h
C[C@H](N)C(=O)NCC(=O)N[C@H]1CSSC[C@@H](C(=O)O)NC(=O)[C@H](CO)NC(=O)[C@H]([C@@H](C)O)NC(=O)[C@H](Cc2ccccc2)NC(=O)[C@H]([C@@H](C)O)NC(=O)[C@H](CCCCN)NC(=O)[C@H](Cc2c[nH]c3ccccc23)NC(=O)[C@H](Cc2ccccc2)NC(=O)[C@H](Cc2ccccc2)NC(=O)[C@H](CC(N)=O)NC(=O)[C@H](CCCCN)NC1=O [Somatostatin-14, reference compound] | 0.28 nM | 0.86 nM | 
NC(=O)[C@H]1CSC[C@@H](NC(=O)[C@@H](N)Cc2ccc(O)cc2)C(=O)NCC(=O)N[C@@H](Cc2ccccc2)C(=O)N1 [Tyr-c[D-AlaL-Gly-Phe-D-AlaL]-NH2] |  |  | IC50 (MVD (δ-receptor); [2]): 1.67 nM
NC(=O)[C@@H]1CSC[C@@H](NC(=O)[C@@H](N)Cc2ccc(O)cc2)C(=O)NCC(=O)N[C@@H](Cc2ccccc2)C(=O)N1 [Tyr-c[D-AlaL-Gly-Phe-L-AlaL]-NH2] |  |  | IC50 (MVD (δ-receptor); [2]): 0.54 nM; IC50 (δ receptor): 7 nM
N[C@@H](Cc1ccc(O)cc1)C(=O)N[C@@H]1CSC[C@@H](C(=O)O)NC(=O)[C@H](Cc2ccccc2)NC(=O)CNC1=O [Tyr-c[D-AlaL-Gly-Phe-L-AlaL]-OH] |  |  | IC50 (MVD (δ-receptor)): 0.16 nM; IC50 (δ receptor): 1 nM
H-D-Phe-c[AlaLPhe-D-Trp-Lys-Thr-AlaL]-OH |  | 500 nM | 
H-D-Phe-c[AlaLPhe-D-Trp-Lys-Thr-AlaL]-Thr-NH2 | 10 nM | 0.5 nM | selectivity for SSTR4 (SSTR2/SSTR4 IC50) compared with the octapeptide alcohols (SSTR4 receptor): four times
H-D-Phe-c[AlaLPhe-D-Trp-Lys-Thr-AlaL]-Thr-ol | 5 nM | 1 nM | 
Sandostatin [reference compound] | 2.4 nM | 0.57 nM | 
c[AlaL3, AlaL14]-Somatostatin-14 | 0.3 nM |  | affinity/potency on SSTR2, in words (SSTR2 receptor): same binding affinity
